The text below walks through data of US11186588B2 (AYUMI PHARMACEUTICAL CORPORATION, priority 2017, dated 2021).

The target of assay [1] is Recombinant BRD4 (44-168) protein (Homo sapiens (Human), UniProt O60885). The assay is described as follows: BRD4-H4KAc4 binding assay (amplified luminescence proximity homogeneous assay, AlphaScreen). Conditions: 10 uM. As for the experimental part: In order to evaluate BRD4 inhibitory activity of the present compounds, BRD4-H4KAc4 binding assay was carried out by an amplified luminescence proximity homogeneous assay. The specific method is described below.
H4KAc4 peptide (available from Toray Research Center, Inc., sequence SGRGK(Ac)GGK(Ac)GLGK(Ac)GGAK(Ac)RHR-K(Biotin)-NH2) was dissolved in 1×Assay buffer to prepare 1 mM H4KAc4 peptide stock solution.
N-terminal His tag/C-terminal FLAG tag-fused type Recombinant BRD4 (44-168) protein (available from Active Motif, Cat No. 31380) was diluted with 1×Assay buffer to 1,250-fold to prepare 250 nM BRD4 solution.
1% DMSO solution (control) and 2 μL of each compound solution in each concentration were added to each well of AlphaPlate-384 (from PerkinElmer, Cat No. 6008350). Next, 2 μL of 250 nM BRD4 solution was added to each well of AlphaPlate-384. Further, 2 μL of 250 nM H4KAc4 peptide solution was added to each well of AlphaPlate-384. After addition of the 250 nM H4KAc4 peptide solution, the mixture was allowed to stand at room temperature under light shielding for 60 minutes, and 4 μL of AlphaScreen beads were added to each well of AlphaPlate-384. After addition of the AlphaScreen beads, the mixture was allowed to stand at room temperature under light shielding for 60 minutes, emission at 520-620 nm upon excitation at 680 nm was detected by EnVision multilabel counter (from PerkinElmer), and binding of BRD4 and H4KAc4 was detected. Incidentally, the evaluation of each compound was carried out in duplicate (2 well per 1 compound).
The BRD4 inhibition rate (%) was calculated by the following equation using Microsoft EXCEL 2010. BRD4 inhibition rate (%)=100−{(luminescence intensity average value of each compound added well)−(average value of luminescence intensity of blank well))/(average value of luminescence intensity of control well)−(average value of luminescence intensity of blank well)}×100
On the technique in general: In Alpha technology, singlet oxygen from a donor bead excites a nearby acceptor bead.

A further assay relates to NF-κB. The assay is described as follows: NF-κB reporter gene assay (TNF-α stimulated A549/NF-κB-luc cells). Type of assay: cell-based. The note with it: Homo sapiens, TNF-α stimulation. As for the experimental part: In order to evaluate NF-κB inhibitory activity of the present compounds, NF-κB reporter gene assay was carried out. The specific method is described below.
Gene recombinant human TNF-α (available from R&D systems, Cat No. 210-TA) was dissolved in D-PBS(−) (available from Wako Pure Chemical Industries, Ltd., Cat No. 293-72601) to prepare 100 μg/mL of TNF-α solution stock solution. 100 μg/mL of the TNF-α solution stock solution was diluted with the culture medium to prepare 10 ng/mL of TNF-α solution.
A549/NF-κB-luc cells (available from Panomics, Cat No. LR0051) were prepared at 375,000 cells/mL in the culture medium. The 375,000 cells/mL A549/NF-κB-luc cell suspension was seeded at 80 μL each on a white 96-well plate (available from Greiner, Cat No. 655073). One hour after seeding the cells, 10 μL of 2% DMSO solution (control) and each compound solution in each concentration were added to each well of the 96-well plate. One hour after the addition of each compound solution, 10 ng/mL of the TNF-α solution (10 μL) was added to each well of the 96-well plate. Three hours after the addition of 10 ng/mL of the TNF-α solution, 100 μL of Steady-Glo reagent (available from Promega, Cat No. E2510) was added to each well of the 96-well plate. After 30 to 90 minutes of the addition of the Steady-Glo reagent, the luminescence intensity of each well was detected by EnVision multilabel counter (available from PerkinElmer).
NF-κB inhibition rate (%) was calculated by the following equation using Microsoft EXCEL 2010. NF-κB inhibition rate (%)=100−{(luminescence intensity average value of each compound added well)−(average value of luminescence intensity of blank well))/(average value of luminescence intensity of control well)−(average value of luminescence intensity of blank well)}×100 In addition, IC50 values were calculated from the calculated NF-κB inhibition rate (%) using curve fitting software XLfit (available from IDBS).

What is called inhibition is the change of the read-out against control, counted positive when it falls. By IC50 is commonly meant the concentration at which inhibition is half-maximal. Read a high IC50 as weaker potency. For the compound `Cc1sc2c(c1C)C(c1ccc(Cl)cc1)=NN(Cc1ncccc1Cl)c1nnc(C)n1-2` [Example 24, 4-(4-chlorophenyl)-6-((3-chloropyridin-2-yl)methyl)-2,3,9-trimethyl-6H-thieno[2,3-e][1,2,4]triazolo[3,4-c][1,2,4]triazepine], the inhibition at 10 µM in assay [1] is 100%. For the same compound, the IC50 in the assay on NF-κB turned out to be 1050 nM.
Turning to `Cc1sc2c(c1C)C(c1ccc(Cl)cc1)=NN(Cc1ccc(F)nc1)c1nnc(C)n1-2` [Example 26, 4-(4-chlorophenyl)-6-((6-fluoropyridin-3-yl)methyl)-2,3,9-trimethyl-6H-thieno[2,3-e][1,2,4]triazolo[3,4-c][1,2,4]triazepine], the inhibition at 10 µM in assay [1] came out at 100%. This compound also had an IC50 in the assay on NF-κB of 12.3 nM.
In the same order, the values of `Cc1sc2c(c1C)C(c1ccccc1)=NNc1nnc(C)n1-2` [Example 27, 2,3,9-trimethyl-4-phenyl-6H-thieno[2,3-e][1,2,4]triazolo[3,4-c][1,2,4]triazepine] are 101% and 3100 nM.
For `Cc1sc2c(c1C)C(c1ccccc1)=NN(Cc1ccccc1)c1nnc(C)n1-2` [Example 29, 6-benzyl-2,3,9-trimethyl-4-phenyl-6H-thieno[2,3-e][1,2,4]triazolo[3,4-c][1,2,4]triazepine] the same measures were 101% and 265 nM.
Turning to `COc1cccc(CN2N=C(c3ccccc3)c3c(sc(C)c3C)-n3c(C)nnc32)c1` [Example 33, 6-(3-methoxybenzyl)-2,3,9-trimethyl-4-phenyl-6H-thieno[2,3-e][1,2,4]triazolo[3,4-c][1,2,4]triazepine], the inhibition at 10 µM in assay [1] was 99.2%. The IC50 in the assay on NF-κB came out at 87.2 nM.
On to `COc1ccccc1CN1N=C(c2ccc(Cl)cc2)c2c(sc(C)c2C)-n2c(C)nnc21` [Example 34, 4-(4-chlorophenyl)-6-(2-methoxybenzyl)-2,3,9-trimethyl-6H-thieno[2,3-e][1,2,4]triazolo[3,4-c][1,2,4]triazepine], for which the inhibition at 10 µM in assay [1] worked out at 100%. Half-maximal inhibition with NF-κB (IC50) required 612 nM.
For the compound `Cc1sc2c(c1C)C(c1ccc(Cl)cc1)=NN(Cc1ccc(Cl)cn1)c1nnc(C)n1-2` [Example 36, 4-(4-chlorophenyl)-6-((5-chloropyridin-2-yl)methyl)-2,3,9-trimethyl-6H-thieno[2,3-e][1,2,4]triazolo[3,4-c][1,2,4]triazepine], in assay [1], the inhibition at 10 µM is 100%. Besides, in the assay with NF-κB, half-maximal inhibition (IC50) was put at 401 nM.
`Cc1sc2c(c1C)C(c1ccc(Cl)cc1)=NN(Cc1cncc(Cl)c1)c1nnc(C)n1-2` [Example 39, 4-(4-chlorophenyl)-6-((5-chloropyridin-3-yl)methyl)-2,3,9-trimethyl-6H-thieno[2,3-e][1,2,4]triazolo[3,4-c][1,2,4]triazepine]: the inhibition at 10 µM in assay [1] came to 100%. Moreover, 620 nM corresponded to half-maximal inhibition in the assay on NF-κB (IC50).
As to `Cc1sc2c(c1C)C(c1ccc(Cl)cc1)=NN(Cc1cc(Cl)ccn1)c1nnc(C)n1-2` [Example 40, 4-(4-chlorophenyl)-6-((4-chloropyridin-2-yl)methyl)-2,3,9-trimethyl-6H-thieno[2,3-e][1,2,4]triazolo[3,4-c][1,2,4]triazepine], the inhibition at 10 µM in assay [1] is 100%. This compound showed an IC50 in the assay with NF-κB of 699 nM.
As for `Cc1sc2c(c1C)C(c1ccc(Cl)cc1)=NN(Cc1ccnc(F)c1)c1nnc(C)n1-2` [Example 42, 4-(4-chlorophenyl)-6-((2-fluoropyridin-4-yl)methyl)-2,3,9-trimethyl-6H-thieno[2,3-e][1,2,4]triazolo[3,4-c][1,2,4]triazepine], the inhibition at 10 µM in assay [1] was 100%. The compound further came in with an IC50 in the assay with NF-κB of 1150 nM.
In the same order, the values of `Cc1sc2c(c1C)C(c1ccc(Cl)cc1)=NN(Cc1cnccc1Cl)c1nnc(C)n1-2` [Example 43, 4-(4-chlorophenyl)-6-((4-chloropyridin-3-yl)methyl)-2,3,9-trimethyl-6H-thieno[2,3-e][1,2,4]triazolo[3,4-c][1,2,4]triazepine] are 100% and 1830 nM.
In the same order, the values of `Cc1sc2c(c1C)C(c1ccc(Cl)cc1)=NN(CCc1c[nH]c3ccccc13)c1nnc(C)n1-2` [Example 44, 6-(2-(1H-indol-3-yl)ethyl)-4-(4-chlorophenyl)-2,3,9-trimethyl-6H-thieno[2,3-e][1,2,4]triazolo[3,4-c][1,2,4]triazepine] are 99.3% and 9850 nM.
As to `Cc1sc2c(c1C)C(c1ccc(Cl)cc1)=NN(Cc1cccs1)c1nnc(C)n1-2` [Example 45, 4-(4-chlorophenyl)-2,3,9-trimethyl-6-(thiophen-2-ylmethyl)-6H-thieno[2,3-e][1,2,4]triazolo[3,4-c][1,2,4]triazepine], the inhibition at 10 µM in assay [1] came to 99.9%. This compound also had an IC50 in the assay with NF-κB of 429 nM.
As to `COc1cccc(CN2N=C(c3ccc(Cl)cc3)c3c(sc(C)c3C)-n3c(C)nnc32)n1` [Example 46, 4-(4-chlorophenyl)-6-((6-methoxypyridin-2-yl)methyl)-2,3,9-trimethyl-6H-thieno[2,3-e][1,2,4]triazolo[3,4-c][1,2,4]triazepine], in assay [1], the inhibition at 10 µM amounted to 100%. For the same compound, the IC50 in the assay on NF-κB worked out at 683 nM.
In the same order, the values of `COc1ccc(CN2N=C(c3ccc(Cl)cc3)c3c(sc(C)c3C)-n3c(C)nnc32)nc1` [Example 47, 4-(4-chlorophenyl)-6-((5-methoxypyridin-2-yl)methyl)-2,3,9-trimethyl-6H-thieno[2,3-e][1,2,4]triazolo[3,4-c][1,2,4]triazepine] are 100% and 554 nM.
In the same order, the values of `COc1ccnc(CN2N=C(c3ccc(Cl)cc3)c3c(sc(C)c3C)-n3c(C)nnc32)c1` [Example 48, 4-(4-chlorophenyl)-6-((4-methoxypyridin-2-yl)methyl)-2,3,9-trimethyl-6H-thieno[2,3-e][1,2,4]triazolo[3,4-c][1,2,4]triazepine] are 100% and 297 nM.
In the case of `COc1ccc(CN2N=C(c3ccc(Cl)cc3)c3c(sc(C)c3C)-n3c(C)nnc32)cn1` [Example 50, 4-(4-chlorophenyl)-6-((6-methoxypyridin-3-yl)methyl)-2,3,9-trimethyl-6H-thieno[2,3-e][1,2,4]triazolo[3,4-c][1,2,4]triazepine], the inhibition at 10 µM in assay [1] stood at 100%. In the assay with NF-κB, the IC50 amounted to 355 nM.
On to `COc1ccncc1CN1N=C(c2ccc(Cl)cc2)c2c(sc(C)c2C)-n2c(C)nnc21` [Example 51, 4-(4-chlorophenyl)-6-((4-methoxypyridin-3-yl)methyl)-2,3,9-trimethyl-6H-thieno[2,3-e][1,2,4]triazolo[3,4-c][1,2,4]triazepine], for which the inhibition at 10 µM in assay [1] was found to be 100%. In the assay on NF-κB, this compound yielded an IC50 of 265 nM.
In the same order, the values of `Cc1sc2c(c1C)C(c1ccc(Cl)cc1)=NN(Cc1cccc(N)c1)c1nnc(C)n1-2` [Example 52, 3-((4-(4-chlorophenyl)-2,3,9-trimethyl-6H-thieno[2,3-e][1,2,4]triazolo[3,4-c][1,2,4]triazepin-6-yl)methyl)aniline] are 100% and 5230 nM.
For `Cc1sc2c(c1C)C(c1ccc(Cl)cc1)=NN(Cc1cccc(O)c1)c1nnc(C)n1-2` [Example 53, 3-((4-(4-chlorophenyl)-2,3,9-trimethyl-6H-thieno[2,3-e][1,2,4]triazolo[3,4-c][1,2,4]triazepin-6-yl)methyl)phenol] the same measures were 100% and 2980 nM.
